# Activity calls are given as the source filed them. No cut-off for these calls is given here.
# Columns and labels:
# Quadruplex DNA [1] = test: Binding affinity at Tel21 G4 quadruplex DNA (unknown origin) assessed as change in melting temperature at 6 uM by circular dichroism spectrophotometric method; format: nucleic acid
# Quadruplex DNA [2] = test: Binding affinity at Tel45 G4 quadruplex DNA (unknown origin) assessed as change in melting temperature at 6 uM by circular dichroism spectrophotometric method; format: nucleic-acid assay
# U2OS [3] = test: Cytotoxicity against human U2OS cells assessed as reduction in cell viability measured after 24 hrs by CCK8 assay
# [4] = Binding affinity to hairpin duplex DNA (unknown origin) by time resolved fluorescence analysis
# U2OS [5] = test: Induction of apoptosis in human U2OS cells assessed as early apoptotic cells at 2.5 uM measured after 24 hrs by Annexin-V flour 633/propidium iodide staining based flow cytometry (reference value: 9.55%); format: functional
# U2OS [6] = test: Cell cycle arrest in human U2OS cells assessed as accumulation at S phase at 2.5 uM measured after 24 hrs by propidium iodide staining based flow cytometry (reference value: 24%); format: functional
# Quadruplex DNA [7] = test: Binding affinity to Tel45 G4 quadruplex DNA (unknown origin) assessed as compound-DNA complex formation at stoichiometry ratio of 1:1 by job-plot analysis; format: nucleic-acid assay
# Quadruplex DNA [8] = test: Binding affinity at Tel21 G4 quadruplex DNA (unknown origin) by fluorescence spectroscopic analysis; format: nucleic-acid assay
# U2OS [9] = test: Induction of apoptosis in human U2OS cells assessed as late apoptotic cells at 0.6 uM measured after 24 hrs by Annexin-V flour 633/propidium iodide staining based flow cytometry (reference value: 0.03%); format: functional
# Quadruplex DNA [10] = test: Binding affinity at Tel45-9 mutant G4 quadruplex DNA (unknown origin) assessed as change in melting temperature at 6 uM by circular dichroism spectrophotometric method; format: nucleic-acid assay
# U2OS [11] = test: Cell cycle arrest in human U2OS cells assessed as accumulation at G2/M phase at 2.5 uM measured after 24 hrs by propidium iodide staining based flow cytometry (reference value: 33.5%); format: functional
# U2OS [12] = test: Cell cycle arrest in human U2OS cells assessed as accumulation at G0/G1 phase at 1.2 uM measured after 24 hrs by propidium iodide staining based flow cytometry (reference value: 42%); format: functional
# U2OS [13] = test: Antimigratory activity in human U2OS cells measured after 24 hrs by wound scrape assay; format: functional, cell-based; settings: dose 1.5-5 µM
# U2OS [14] = test: Cell cycle arrest in human U2OS cells assessed as accumulation at Sub-G1 phase at 0.6 uM measured after 24 hrs by propidium iodide staining based flow cytometry (reference value: 0.5%); format: functional
# U2OS [15] = test: Cell cycle arrest in human U2OS cells assessed as accumulation at G2/M phase at 1.2 uM measured after 24 hrs by propidium iodide staining based flow cytometry (reference value: 33.5%); format: functional
# U2OS [16] = test: Cell cycle arrest in human U2OS cells assessed as accumulation at Sub-G1 phase at 1.2 uM measured after 24 hrs by propidium iodide staining based flow cytometry (reference value: 0.5%); format: functional
# Quadruplex DNA [17] = test: Binding affinity at Tel45-6 mutant G4 quadruplex DNA (unknown origin) by fluorescence spectroscopic analysis; format: nucleic-acid assay
# [18] = Binding affinity to hairpin duplex DNA (unknown origin) by fluorescence spectroscopic analysis
# U2OS [19] = test: Cell cycle arrest in human U2OS cells assessed as accumulation at G2/M phase at 0.6 uM measured after 24 hrs by propidium iodide staining based flow cytometry (reference value: 33.5%); format: functional
# U2OS [20] = test: Induction of apoptosis in human U2OS cells assessed as late apoptotic cells at 1.2 uM measured after 24 hrs by Annexin-V flour 633/propidium iodide staining based flow cytometry (reference value: 0.03%); format: functional
# BJ = test: Cytotoxicity against human BJ cells assessed as reduction in cell viability measured after 24 hrs by CCK8 assay; format: cell-based
# U2OS [21] = test: Cell cycle arrest in human U2OS cells assessed as accumulation at G0/G1 phase at 2.5 uM measured after 24 hrs by propidium iodide staining based flow cytometry (reference value: 42%); format: functional
# U2OS [22] = test: Induction of apoptosis in human U2OS cells assessed as viable cells at 2.5 uM measured after 24 hrs by Annexin-V flour 633/propidium iodide staining based flow cytometry (reference value: 90%); format: functional; settings: read-out: Activity
# U2OS [23] = test: Induction of apoptosis in human U2OS cells assessed as necrotic cells at 1.2 uM measured after 24 hrs by Annexin-V flour 633/propidium iodide staining based flow cytometry (reference value: 0.022%); format: functional
# U2OS [24] = test: Induction of apoptosis in human U2OS cells assessed as viable cells at 1.2 uM measured after 24 hrs by Annexin-V flour 633/propidium iodide staining based flow cytometry (reference value: 90%); format: functional; settings: read-out: Activity
# U2OS [25] = test: Induction of apoptosis in human U2OS cells assessed as necrotic cells at 2.5 uM measured after 24 hrs by Annexin-V flour 633/propidium iodide staining based flow cytometry (reference value: 0.022%); format: functional
# Quadruplex DNA [26] = test: Binding affinity to 2-Ap1 labelled Tel45 G4 quadruplex DNA (unknown origin) up to 10 uM by fluorescence titration assay; format: nucleic-acid assay; settings: dose microM <=10
# Quadruplex DNA [27] = test: Binding affinity at Tel21 G4 quadruplex DNA (unknown origin) by time resolved fluorescence analysis; format: nucleic-acid assay
# U2OS [28] = test: Induction of apoptosis in human U2OS cells assessed as late apoptotic cells at 2.5 uM measured after 24 hrs by Annexin-V flour 633/propidium iodide staining based flow cytometry (reference value: 0.03%); format: functional
# U2OS [29] = test: Induction of apoptosis in human U2OS cells assessed as viable cells at 0.6 uM measured after 24 hrs by Annexin-V flour 633/propidium iodide staining based flow cytometry (reference value: 90%); format: functional; settings: read-out: Activity
# Quadruplex DNA [30] = test: Binding affinity at Tel45 G4 quadruplex DNA (unknown origin) assessed as appearance of new long-lived unquenched species by time resolved fluorescence assay; format: nucleic-acid assay
# U2OS [31] = test: Cell cycle arrest in human U2OS cells assessed as accumulation at S phase at 1.2 uM measured after 24 hrs by propidium iodide staining based flow cytometry (reference value: 24%); format: functional
# U2OS [32] = test: Induction of apoptosis in human U2OS cells assessed as early apoptotic cells at 0.6 uM measured after 24 hrs by Annexin-V flour 633/propidium iodide staining based flow cytometry (reference value: 9.55%); format: functional
# Quadruplex DNA [33] = test: Binding affinity at Tel45-6 mutant G4 quadruplex DNA (unknown origin) assessed as change in melting temperature at 6 uM by circular dichroism spectrophotometric method; format: nucleic-acid assay
# Quadruplex DNA [34] = test: Binding affinity to 2-Ap25 labelled Tel45 G4 quadruplex DNA (unknown origin) up to 10 uM by fluorescence titration assay; format: nucleic-acid assay; settings: dose microM <=10
# Quadruplex DNA [35] = test: Binding affinity to 2-Ap46 labelled Tel45 G4 quadruplex DNA (unknown origin) up to 10 uM by fluorescence titration assay; format: nucleic-acid assay; settings: dose microM <=10
# U2OS [36] = test: Cell cycle arrest in human U2OS cells assessed as increase in accumulation at S phase measured after 24 hrs by propidium iodide staining based flow cytometry; format: functional
# Quadruplex DNA [37] = test: Binding affinity at Tel45 G4 quadruplex DNA (unknown origin) by fluorescence spectroscopic analysis; format: nucleic-acid assay
# Quadruplex DNA [38] = test: Binding affinity at Tel45-9 mutant G4 quadruplex DNA (unknown origin) by fluorescence spectroscopic analysis; format: nucleic-acid assay
# U2OS [39] = test: Induction of apoptosis in human U2OS cells assessed as necrotic cells at 0.6 uM measured after 24 hrs by Annexin-V flour 633/propidium iodide staining based flow cytometry (reference value: 0.022%); format: functional
# U2OS [40] = test: Cell cycle arrest in human U2OS cells assessed as accumulation at S phase at 0.6 uM measured after 24 hrs by propidium iodide staining based flow cytometry (reference value: 24%); format: functional
# U2OS [41] = test: Cell cycle arrest in human U2OS cells assessed as accumulation at G0/G1 phase at 0.6 uM measured after 24 hrs by propidium iodide staining based flow cytometry (reference value: 42%); format: functional
# U2OS [42] = test: Inhibition of colony formation in human U2OS cells supplemented with fresh medium containing compounds every 3 days for 7 days by crystal violet staining based assay; format: functional, cell-based; settings: dose 0.12-0.5 µM, time 7.0 day
# U2OS [43] = test: Induction of apoptosis in human U2OS cells assessed as early apoptotic cells at 1.2 uM measured after 24 hrs by Annexin-V flour 633/propidium iodide staining based flow cytometry (reference value: 9.55%); format: functional
# U2OS [44] = test: Cell cycle arrest in human U2OS cells assessed as accumulation at Sub-G1 phase at 2.5 uM measured after 24 hrs by propidium iodide staining based flow cytometry (reference value: 0.5%); format: functional
structure (smiles),measurement,setting,value
CN1CCN(c2ccc(-c3nc(-c4ccc(-c5nc(-c6ccc(F)cc6)c(-c6ccc(F)cc6)[nH]5)cc4)[nH]c3-c3ccc(N4CCN(C)CC4)cc3)cc2)CC1,deltaTm,Quadruplex DNA [1],6.1 °C
same,ΔTm,Quadruplex DNA [2],10.9 °C
CN1CCN(c2ccc(-c3nc(-c4ccc(-c5nc(-c6ccc(N7CCN(C)CC7)cc6)c(-c6ccc(N7CCN(C)CC7)cc6)[nH]5)cc4)[nH]c3-c3ccc(N4CCN(C)CC4)cc3)cc2)CC1,deltaTm,Quadruplex DNA [1],8.9 °C
same,ΔTm,Quadruplex DNA [2],6.9 °C
CN(C)c1ccc(Nc2c3ccc(NC(=O)CCN4CCCC4)cc3nc3cc(NC(=O)CCN4CCCC4)ccc23)cc1,IC50,U2OS [3],> 40 µM
CN1CCN(c2ccc(-c3nc(-c4ccc(-c5nc(-c6ccc(F)cc6)c(-c6ccc(N7CCN(C)CC7)cc6)[nH]5)cc4)[nH]c3-c3ccc(N4CCN(C)CC4)cc3)cc2)CC1,deltaTm,Quadruplex DNA [1],6.5 °C
same,ΔTm,Quadruplex DNA [2],15.7 °C
CN1CCN(c2ccc(-c3nc(-c4ccc(-c5nc(-c6ccc(F)cc6)c(-c6ccc(N7CCN(C)CC7)cc6)[nH]5)cc4)[nH]c3-c3ccc(F)cc3)cc2)CC1,Activity,[4],Not Active
same,Activity,U2OS [5],20%
same,Activity,U2OS [6],32.2%
same,Activity,Quadruplex DNA [7],Active
same,Kd,Quadruplex DNA [8],18.4 µM
same,Activity,U2OS [9],3.05%
same,deltaTm,Quadruplex DNA [10],4.3 °C
same,Activity,U2OS [11],27.9%
same,Activity,U2OS [12],39.3%
same,Activity,U2OS [13],Dose-dependent effect
same,deltaTm,Quadruplex DNA [1],1.7 °C
same,Activity,U2OS [14],0.3%
same,Activity,U2OS [15],34.4%
same,Activity,U2OS [16],0.4%
same,Kd,Quadruplex DNA [17],8.6 µM
same,Kd,[18],51.7 µM
same,Activity,U2OS [19],33.4%
same,Activity,U2OS [20],4.78%
same,IC50,BJ,29.3 µM
same,IC50,U2OS [3],2.1 µM
same,Activity,U2OS [21],36.5%
same,viability at 2.5 µM,U2OS [22],73.7%
same,Activity,U2OS [23],0.53%
same,viability at 1.2 µM,U2OS [24],76.8%
same,Activity,U2OS [25],1.34%
same,Activity,Quadruplex DNA [26],inactive
same,Activity,Quadruplex DNA [27],Not Active
same,Activity,U2OS [28],4.92%
same,viability at 0.6 µM,U2OS [29],84.3%
same,Activity,Quadruplex DNA [30],Active
same,Activity,U2OS [31],25.9%
same,Activity,U2OS [32],12.5%
same,deltaTm,Quadruplex DNA [33],2.5 °C
same,Activity,Quadruplex DNA [34],Active
same,Activity,Quadruplex DNA [35],inactive
same,ΔTm,Quadruplex DNA [2],12.7 °C
same,Activity,U2OS [36],Dose-dependent effect
same,Kd,Quadruplex DNA [37],4.6 µM
same,Kd,Quadruplex DNA [38],10.7 µM
same,Activity,U2OS [39],0.14%
same,Activity,U2OS [40],25%
same,Activity,U2OS [41],41.4%
same,inhibition,U2OS [42],Dose-dependent effect
same,Activity,U2OS [43],17.9%
same,Activity,U2OS [44],3.4%

# — ChEMBL document CHEMBL4715837, “Dimeric aryl-substituted imidazoles may inhibit ALT cancer by targeting the multimeric G-quadruplex in telomere” (Eur J Med Chem, 2020)
